Measurements published in the supplement of paper PMC10307832.

Legend:
Test in all cases: relative viability (nuclei count vs DMSO), 5 days (fraction); higher = more cells survive
[1] = compound: CC[C@H](C)N1C=C(C2=C(C=C(C=C21)C3=CN=C(C=C3)N4CCNCC4)C(=O)NCC5=C(C=C(NC5=O)C)C)C [GSK126] + O=C(c1cc(Cc2n[nH]c(=O)c3ccccc23)ccc1F)N1CCN(C(=O)C2CC2)CC1 [Olaparib] (partner 8 µM)
Procedure, shortened: (§1)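 Five library-drug doses in √10 steps were combined with a fixed anchor-drug dose, or a single drug was given alone, by pin tool to lung cancer cell lines in 1536-well plates the day after seeding. Nuclei were stained and counted after 5 days. Relative viability is the nuclei count in treated wells over that in vehicle wells, taken as the median of duplicate plates.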

[2] = compound: CC[C@H](C)N1C=C(C2=C(C=C(C=C21)C3=CN=C(C=C3)N4CCNCC4)C(=O)NCC5=C(C=C(NC5=O)C)C)C [GSK126] + CS(=O)(=O)CCNCc1ccc(-c2ccc3ncnc(Nc4ccc(OCc5cccc(F)c5)c(Cl)c4)c3c2)o1 [Lapatinib] (partner 2 µM)
Procedure, shortened: as §1

[3] = compound: C1CC(C1)(C(=O)O)C(=O)O.[NH2-].[NH2-].[Pt+2] [Carboplatin] + CC(=O)c1c(C)c2cnc(Nc3ccc(N4CCNCC4)cn3)nc2n(C2CCCC2)c1=O [Palbociclib] (partner 0.5 µM)
Procedure, shortened: as §1

[4] = compound: C1CC(C1)(C(=O)O)C(=O)O.[NH2-].[NH2-].[Pt+2] [Carboplatin] + CS(=O)(=O)N1CCN(Cc2cc3nc(-c4cccc5[nH]ncc45)nc(N4CCOCC4)c3s2)CC1 [Pictilisib] (partner 1 µM)
Procedure, shortened: as §1

| Cell Line | relative viability ([1]; first compound 0.08 µM) | relative viability ([1]; first compound 0.253 µM) | relative viability ([1]; first compound 0.8 µM) | relative viability ([1]; first compound 2.53 µM) | relative viability ([1]; first compound 8 µM) | relative viability ([2]; first compound 0.08 µM) | relative viability ([2]; first compound 0.253 µM) | relative viability ([2]; first compound 0.8 µM) | relative viability ([2]; first compound 2.53 µM) | relative viability ([2]; first compound 8 µM) | relative viability ([3]; first compound 0.08 µM) | relative viability ([3]; first compound 0.253 µM) | relative viability ([3]; first compound 0.8 µM) | relative viability ([3]; first compound 2.53 µM) | relative viability ([3]; first compound 8 µM) | relative viability ([4]; first compound 0.08 µM) | relative viability ([4]; first compound 0.253 µM) | relative viability ([4]; first compound 0.8 µM) | relative viability ([4]; first compound 2.53 µM) | relative viability ([4]; first compound 8 µM) |
| --- | --- | --- | --- | --- | --- | --- | --- | --- | --- | --- | --- | --- | --- | --- | --- | --- | --- | --- | --- | --- |
| NCI-H1650 | 0.742 | 0.849 | 0.761 | 0.784 | 0.901 | 0.828 | 0.798 | 0.739 | 0.854 | 0.755 | 0.321 | 0.341 | 0.359 | 0.349 | 0.251 | 0.741 | 0.651 | 0.563 | 0.519 | 0.416 |
| NCI-H1355 | 0.809 | 0.754 | 0.772 | 0.752 | 0.774 | 1.04 | 1.07 | 0.989 | 0.967 | 0.992 | 0.442 | 0.446 | 0.415 | 0.402 | 0.395 | 0.394 | 0.537 | 0.461 | 0.431 | 0.454 |
| NCI-H1734 | 0.633 | 0.685 | 0.628 | 0.701 | 0.756 | 1.07 | 1 | 1.03 | 1.18 | 1.15 | 0.367 | 0.342 | 0.356 | 0.362 | 0.311 | 0.51 | 0.47 | 0.487 | 0.451 | 0.424 |
| LXF-289 | 1.12 | 1.11 | 1.05 | 1.01 | 1.02 | 0.92 | 0.84 | 0.894 | 0.885 | 0.881 | 0.629 | 0.59 | 0.635 | 0.563 | 0.583 | 0.889 | 0.883 | 0.8 | 0.832 | 0.766 |
| RERF-LC-KJ | 0.935 | 0.979 | 1.04 | 0.826 | 0.83 | 0.927 | 0.854 | 0.822 | 0.889 | 0.867 | 1.22 | 1.09 | 0.894 | 0.815 | 0.651 | 0.584 | 0.48 | 0.512 | 0.453 | 0.316 |
| NCI-H2087 | 0.62 | 0.6 | 0.683 | 0.752 | 0.788 | 1.41 | 0.931 | 1.11 | 1.22 | 1.3 | 0.259 | 0.23 | 0.208 | 0.212 | 0.194 | 0.968 | 0.868 | 0.859 | 0.826 | 0.504 |
| NCI-H1793 | 0.931 | 0.8 | 0.732 | 1.24 | 0.989 | 0.867 | 0.467 | 0.647 | 0.583 | 0.629 | 0.364 | 0.365 | 0.31 | 0.325 | 0.365 | 0.396 | 0.345 | 0.316 | 0.382 | 0.329 |
| HCC-827 | 0.725 | 0.642 | 0.617 | 0.726 | 0.601 | 0.189 | 0.179 | 0.19 | 0.152 | 0.197 | 0.479 | 0.38 | 0.499 | 0.44 | 0.469 | 0.886 | 0.923 | 0.79 | 0.846 | 0.897 |
